Source: ChEMBL document CHEMBL5325459, “Design, synthesis, and analgesia evaluation of novel Transient Receptor Potential Vanilloid 1 (TRPV1) agonists modified from Cannabidiol (CBD)” (Bioorg Med Chem, 2023)
pEC50, pKd: −log10 of the molar value.

What was measured:
[1] = target: T1, Transient receptor potential cation channel subfamily V member 1 (Homo sapiens, UniProt Q8NER1); assay: Agonist activity at human TRPV1 overexpressed in HEK293 cells incubated for 1 hr by Fluo-4 AM dye based microscopic analysis; format: cell-based
T1 sequence (Q8NER1 whole entry): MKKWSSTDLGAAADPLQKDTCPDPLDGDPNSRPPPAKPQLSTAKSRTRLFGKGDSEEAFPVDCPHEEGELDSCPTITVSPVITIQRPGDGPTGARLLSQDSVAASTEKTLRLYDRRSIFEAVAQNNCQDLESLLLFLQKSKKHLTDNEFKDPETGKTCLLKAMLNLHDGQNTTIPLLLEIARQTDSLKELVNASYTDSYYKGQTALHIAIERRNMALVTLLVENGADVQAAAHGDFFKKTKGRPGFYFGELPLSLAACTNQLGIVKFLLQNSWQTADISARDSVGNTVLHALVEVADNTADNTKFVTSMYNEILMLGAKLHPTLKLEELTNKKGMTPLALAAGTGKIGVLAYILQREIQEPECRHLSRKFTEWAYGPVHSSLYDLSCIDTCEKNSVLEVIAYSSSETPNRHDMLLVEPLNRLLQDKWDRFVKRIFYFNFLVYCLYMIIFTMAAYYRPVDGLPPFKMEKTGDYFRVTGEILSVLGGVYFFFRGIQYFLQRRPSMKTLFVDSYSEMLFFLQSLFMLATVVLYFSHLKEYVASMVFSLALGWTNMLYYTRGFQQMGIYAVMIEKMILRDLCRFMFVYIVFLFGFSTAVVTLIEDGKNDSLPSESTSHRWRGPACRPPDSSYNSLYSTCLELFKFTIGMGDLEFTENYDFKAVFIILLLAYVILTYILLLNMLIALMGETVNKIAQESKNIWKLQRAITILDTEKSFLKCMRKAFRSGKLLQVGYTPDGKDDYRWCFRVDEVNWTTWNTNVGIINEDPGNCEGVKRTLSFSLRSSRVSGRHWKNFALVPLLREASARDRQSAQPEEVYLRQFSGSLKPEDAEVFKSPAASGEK

[2] = Toxicity in Kunming mouse assessed as decrease in core body temperature at 50 mg/kg measured after 15 mins; format: organism-based; conditions: in vivo, 0.25 h
[3] = Toxicity in Kunming mouse assessed as decrease in core body temperature at 50 mg/kg measured upto hrs; format: organism-based; conditions: in vivo
[4] = target: T1, Transient receptor potential cation channel subfamily V member 1; assay: Binding affinity to human TRPV1 assessed as dissociation constant by SPR analysis

pEC50 [1] | Compound | also measured
4.15 | CCCCCc1cc(O)c(NC(=O)c2ccc(=O)oc2)c(O)c1 | –
4.40 | CCCCCc1cc(O)c(NS(=O)(=O)c2cc(F)cc(F)c2)c(O)c1 | –
– | COc1ccc(COC(=O)CCc2cc(O)c(NS(=O)(=O)c3cc(F)cc(F)c3)c(O)c2)cc1OC | Activity [2]: Toxic
4.39 | CCCCCc1cc(O)c(NC(=O)Nc2cccc3ncccc23)c(O)c1 | –
5.35 | CCCCCc1cc(O)c(NS(=O)(=O)c2ccc(-c3ccccc3)cc2)c(O)c1 | –
– | COc1cc(COC(=O)CCc2cc(O)c(NS(=O)(=O)c3cc(F)cc(F)c3)c(O)c2)ccc1O | Activity [3]: Non-Toxic
4.98 | CCCCCc1cc(O)c(NS(=O)(=O)c2cccc(C(F)(F)F)c2)c(O)c1 | –
4.44 | CCCCCc1cc(O)c(NS(=O)(=O)c2cccc3cccnc23)c(O)c1 | –

Compound | pEC50 [1] | also measured
C=C(C)[C@@H]1CCC(C)=C[C@H]1c1c(O)cc(CCCCC)cc1O [CANNABIDIOL] | 4.41 | pKd [4]: 3.96; Activity [3]: Non-Toxic
